Data published in publication PMC3105092 (PLoS ONE, 2011).
Values joined by “and” are separate entries in the source; they are usually repeats but may differ in a detail not shown here. Identical values can stand only once.

Columns and labels:
hCPR [1] = molecular target: T1, hCPR (Homo sapiens, UniProt P16435); assay: Isothermal titration calorimetry of oxidised CPR with nucleotides in phosphate-free 100 mM BES, pH 7.0, 25 °C, single-site model; Kd = 1/Kobs.; type: binding
T1 construct: gene POR
T1 sequence (P16435 64-677): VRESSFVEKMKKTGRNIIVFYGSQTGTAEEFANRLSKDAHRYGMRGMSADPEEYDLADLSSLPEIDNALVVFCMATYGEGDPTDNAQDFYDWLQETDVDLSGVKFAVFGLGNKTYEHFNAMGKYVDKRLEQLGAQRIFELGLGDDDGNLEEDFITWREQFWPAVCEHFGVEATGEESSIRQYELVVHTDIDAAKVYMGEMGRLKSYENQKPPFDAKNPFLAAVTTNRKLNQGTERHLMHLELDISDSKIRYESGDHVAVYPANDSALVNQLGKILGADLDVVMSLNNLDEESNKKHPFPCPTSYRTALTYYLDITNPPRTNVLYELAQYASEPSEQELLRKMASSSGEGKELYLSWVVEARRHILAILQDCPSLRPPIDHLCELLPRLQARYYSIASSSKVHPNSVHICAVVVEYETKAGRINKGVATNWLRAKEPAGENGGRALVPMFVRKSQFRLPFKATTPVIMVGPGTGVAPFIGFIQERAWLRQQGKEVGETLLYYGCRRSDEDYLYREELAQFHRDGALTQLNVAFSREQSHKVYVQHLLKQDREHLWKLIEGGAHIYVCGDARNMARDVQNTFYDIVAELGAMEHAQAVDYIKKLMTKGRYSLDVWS
Description: Figure 3 represents the ITC binding isotherms resulting from the titration of AgCPR with 2′, 5′-ADP, NADP+ and 2′-AMP.

hCPR [2] = molecular target: T1, hCPR; assay: Inhibition of cytochrome c (50 µM) reduction in phosphate-free 0.1 M Tris-HCl pH 7.7/0.1 M KCl, 25 °C, started with 12 µM (AgCPR) or 5 µM (hCPR) NADPH.; type: biochemical; settings: SEM; read-out: IC50 µM (±S.E.), Tris Buffer
Method: (§3) Measurement of cytochrome c reduction was carried out at 25°C with 50 µM cytochrome c and 0.75 pmol purified AgCPR or hCPR essentially as described [17] using 0.3 M potassium phosphate buffer, pH 7.7 or 0.1 M Tris-HCl, pH 7.7/0.1 M KCl, and different concentrations of 2′, 5′-ADP, 2′-AMP, NADP or diphenyliodonium chloride (all from Sigma-Aldrich, UK).

AgCPR [3] = molecular target: T2, AgCPR (Anopheles gambiae, UniProt Q86QH5); assay: Inhibition of cytochrome c (50 µM) reduction in 0.3 M potassium phosphate pH 7.7, 25 °C, started with 30 µM NADPH (AgCPR).; type: biochemical; set-up: Δ63AgCPR: soluble, membrane anchor (amino acids 2-63) deleted; His-tag removed by thrombin; expressed in E. coli; settings: SEM; read-out: IC50 µM (±S.E.), Phosphate Buffer
Method: as §3

AgCPR [4] = molecular target: T2, AgCPR; assay: Inhibition of cytochrome c (50 µM) reduction in phosphate-free 0.1 M Tris-HCl pH 7.7/0.1 M KCl, 25 °C, started with 12 µM (AgCPR) or 5 µM (hCPR) NADPH.; type: biochemical; set-up: Δ63AgCPR: soluble, membrane anchor (amino acids 2-63) deleted; His-tag removed by thrombin; expressed in E. coli; settings: SEM; read-out: IC50 µM (±S.E.), Tris Buffer
Method: as §3

[5] = molecular target: T3, AgCPR (Anopheles gambiae NADPH-cytochrome P450 oxidoreductase) (Anopheles gambiae, UniProt Q86QH5); assay: Isothermal titration calorimetry of nucleotide ligands with AgCPR; type: binding; settings: for Kobs / TΔS / n (binding stoichiometry) / ΔG / ΔH: 25°C, 100 mM BES pH 7.0
T3 sequence (Q86QH5 64-679): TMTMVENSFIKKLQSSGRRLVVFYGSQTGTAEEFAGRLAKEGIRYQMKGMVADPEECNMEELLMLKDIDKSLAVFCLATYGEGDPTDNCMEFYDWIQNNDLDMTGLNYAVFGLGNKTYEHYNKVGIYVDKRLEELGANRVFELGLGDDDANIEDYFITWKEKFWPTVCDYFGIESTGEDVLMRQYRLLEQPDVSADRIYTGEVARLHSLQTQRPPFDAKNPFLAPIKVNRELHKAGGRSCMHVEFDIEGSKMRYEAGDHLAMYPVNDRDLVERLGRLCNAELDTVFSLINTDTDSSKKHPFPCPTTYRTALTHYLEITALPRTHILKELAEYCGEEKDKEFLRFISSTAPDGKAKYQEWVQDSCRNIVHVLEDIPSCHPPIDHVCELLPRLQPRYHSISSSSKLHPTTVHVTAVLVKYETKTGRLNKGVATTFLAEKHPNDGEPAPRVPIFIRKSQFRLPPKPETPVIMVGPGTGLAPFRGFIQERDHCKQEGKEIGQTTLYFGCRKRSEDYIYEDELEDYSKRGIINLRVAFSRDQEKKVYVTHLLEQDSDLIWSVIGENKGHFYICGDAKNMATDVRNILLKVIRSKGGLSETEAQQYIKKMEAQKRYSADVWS
Method: (§1) ITC experiments were performed using a ITC200 microcalorimeter (Microcal Inc/GE Healthcare). Protein samples were dialysed into 100 mM BES; pH 7.0 from 50% glycerol stocks stored at −20°C. The concentrations of all the proteins were determined by using Bradford assay. Samples were centrifuged at 13,000×g for 10 min and degassed at 23°C (2°C below the temperature at which the experiments were performed). All experiments were performed at 25°C. Typically, the protein concentration in the cell was 10–20 µM whilst ligand concentrations were in the range of 100–1000 µM. The data analysed using Origin 7.0 (Microcal) after subtracting the heats of dilution obtained from parallel experiments performed by injecting the nucleotide into the buffer. Thermodynamic parameters n (stoichiometry), K d (1/K a, the association constant), and Δ°H (enthalpy change) were obtained by nonlinear least-squares fitting of experimental data using the single-site binding model. The free energy of binding (ΔG°) and entropy change (ΔS°) were obtained using eqs 1 and 2.

hCPR (human CPR) = molecular target: T4, hCPR (human CPR) (Homo sapiens, UniProt P16435); assay: Isothermal titration calorimetry of nucleotide ligands with hCPR; type: binding; settings: ITC, 25°C, 100 mM BES pH 7.0
T4 sequence (P16435 43-677 limits assumed): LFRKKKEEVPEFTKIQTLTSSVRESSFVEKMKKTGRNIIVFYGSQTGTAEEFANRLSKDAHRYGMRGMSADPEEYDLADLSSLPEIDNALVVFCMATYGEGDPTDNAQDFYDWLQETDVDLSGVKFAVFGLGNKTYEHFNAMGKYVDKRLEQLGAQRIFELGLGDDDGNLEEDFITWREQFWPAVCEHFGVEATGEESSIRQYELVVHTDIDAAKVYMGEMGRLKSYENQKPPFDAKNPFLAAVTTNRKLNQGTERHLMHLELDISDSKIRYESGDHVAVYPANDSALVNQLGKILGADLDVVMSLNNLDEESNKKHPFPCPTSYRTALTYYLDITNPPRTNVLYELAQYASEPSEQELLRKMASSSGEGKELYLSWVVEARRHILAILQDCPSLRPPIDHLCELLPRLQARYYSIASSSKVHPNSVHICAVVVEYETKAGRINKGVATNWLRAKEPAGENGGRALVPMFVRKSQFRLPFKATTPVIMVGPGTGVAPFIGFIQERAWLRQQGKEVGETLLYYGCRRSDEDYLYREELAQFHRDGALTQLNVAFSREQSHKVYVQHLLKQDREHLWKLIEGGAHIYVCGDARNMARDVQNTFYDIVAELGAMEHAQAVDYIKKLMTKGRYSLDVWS
Method: as §1

AgCPR [6] = molecular target: T2, AgCPR; assay: Inhibition of cytochrome c reduction by AgCPR; type: biochemical
Method: as §3

hCPR [7] = molecular target: T5, hCPR (Homo sapiens, UniProt P16435); assay: Inhibition of cytochrome c reduction by hCPR; type: biochemical
T5 sequence (P16435 43-677 limits assumed): T4 sequence (P16435 43-677 limits assumed)
Method: as §3

[8] = molecular target: methionine synthase reductase; settings: read-out: low affinity binding mode (Kd); cited from earlier work
[9] = molecular target: T6, isolated apo-human FMN-binding domain of CPR (Homo sapiens, UniProt P16435); assay: Isothermal titration calorimetry of FMN with apo-human FMN-binding domain; settings: ITC, 25°C, 100 mM BES
T6 sequence (P16435 80-224 limits assumed): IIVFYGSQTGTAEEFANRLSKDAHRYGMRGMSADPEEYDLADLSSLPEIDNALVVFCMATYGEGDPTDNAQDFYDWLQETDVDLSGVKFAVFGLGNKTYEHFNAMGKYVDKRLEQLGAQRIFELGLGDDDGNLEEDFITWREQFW
Method: as §1
(§2) The binding affinity of FMN to the isolated FMN-binding domains of both A. gambiae and hCPR were also examined by titration of the apo-FMN binding domains (Figure 4). Both isotherms show reasonable binding and saturation of the apo-proteins is achieved with excess flavin.

[10] = molecular target: isolated apo-A. gambiae FMN-binding domain of CPR (Anopheles gambiae, UniProt Q86QH5); assay: Isothermal titration calorimetry of FMN with apo-A. gambiae FMN-binding domain; settings: ITC
Method: as §1, §2

AgCPR [11] = molecular target: T2, AgCPR; assay: Cytochrome c and NADPH steady-state kinetics, AgCPR; type: biochemical; settings: phosphate buffer, 50 µM NADPH, 25°C; read-out: Km cytc
Method: (§4) The rate of change of absorbance of horse heart cytochrome c (Sigma-Aldrich, UK) at 550 nm was measured at 25°C using a Cary 4000 UV-Visible spectrophotometer essentially as described [17]. For cytochrome c kinetics, 0.75 pmol purified AgCPR or hCPR was pre-incubated with 0–110 µM cytochrome c (dissolved in 0.3 M potassium phosphate buffer; pH 7.7 or 0.1 M Tris-HCl, pH 7.7/0.1 M KCl) in a total volume of 500 µl for 2 min at 25°C.

hCPR [12] = molecular target: T5, hCPR; assay: Cytochrome c and NADPH steady-state kinetics, hCPR; type: biochemical; settings: phosphate buffer, 50 µM NADPH, 25°C; read-out: Km cytc
Method: as §4

[13] = molecular target: human anchorless NADPH-cytochrome P450 oxidoreductase (hCPR) (human) (UniProt P16435)
Sequence of human anchorless NADPH-cytochrome P450 oxidoreductase (hCPR) (human) (P16435 2-21): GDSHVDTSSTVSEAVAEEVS

[14] = molecular target: Δ63AgCPR (Anopheles gambiae NADPH-cytochrome P450 oxidoreductase lacking the N-terminal membrane anchor) (Anopheles gambiae)
[15] = IC50 (±S.E.), inhibition of cytochrome c reduction, Human CPR, Phosphate Buffer (0.3 M potassium phosphate pH 7.7), 15 µM NADPH, 50 µM cytochrome c, 25°C
[16] = read-out: IC50 (±S.E.), inhibition of cytochrome c reduction
[17] = 25°C, 100 mM BES, A. gambiae apo-FMN domain

Sequence of horse heart cytochrome c (P00004 whole entry): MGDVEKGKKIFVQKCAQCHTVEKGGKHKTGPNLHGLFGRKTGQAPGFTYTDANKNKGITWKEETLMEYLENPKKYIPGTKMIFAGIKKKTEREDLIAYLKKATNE

Nc1ncnc2c1ncn2[C@@H]1O[C@H](COP(=O)(O)O)[C@@H](O)[C@H]1OP(=O)(O)O [2′,5′-ADP, adenosine 2′,5′-diphosphate]
Kd (hCPR [1]): 0.038 ± 0.0038 µM
IC50 (hCPR [2]): 10 ± 1 µM
IC50 (AgCPR [3]): 262 ± 18 µM
IC50 (AgCPR [4]): 62 ± 7 µM

Nc1ncnc2c1ncn2[C@@H]1O[C@H](COP(=O)(O)O)[C@@H](O)[C@H]1OP(=O)(O)O [2′,5′-ADP]
Kd [5]: 0.41 ± 0.018 µM
binding (Kd) to AgCPR weaker than hCPR (fold) ([5]; ITC): ~10 fold
Kobs ([5]; ITC): 24.4±1.07 ×10^5 M^−1
TΔS ([5]; ITC): -4.73 kcal/mol
n (binding stoichiometry) ([5]; ITC): 1.01±0.03
ΔG ([5]; ITC): -8.40 kcal/mol
ΔH ([5]; ITC): -13.13 kcal/mol and -13.13 ± 0.35 kcal/mol
Kobs (hCPR (human CPR)): 263±26.3 ×10^5 M^−1
TΔS (hCPR (human CPR)): -9.97 kcal/mol
n (binding stoichiometry) (hCPR (human CPR)): 1.00±0.02
ΔG (hCPR (human CPR)): -10.39 kcal/mol
ΔH (hCPR (human CPR)): -20.36 kcal/mol and -20.36 ± 0.53 kcal/mol
IC50 of AgCPR relative to hCPR (fold higher) (AgCPR [6]; both phosphate and phosphate-free buffer): 6–10 fold
affinity for mosquito CPR lower than human (fold, from IC50) (AgCPR [6]; phosphate-free Tris buffer): 6 fold
IC50 (hCPR [7]; [15]): 28 ± 2 µM
Kd [8]: ~0.5 µM

Nc1ncnc2c1ncn2[C@@H]1O[C@H](CO)[C@@H](O)[C@H]1OP(=O)(O)O [2′-AMP, adenosine 2′-monophosphate]
Kd (hCPR [1]): 1.6 ± 0.44 µM
IC50 (hCPR [2]): 280 ± 25 µM
IC50 (AgCPR [3]): 1090 ± 202 µM
IC50 (AgCPR [4]): 384 ± 27 µM

Nc1ncnc2c1ncn2[C@@H]1O[C@H](CO)[C@@H](O)[C@H]1OP(=O)(O)O [2′-AMP]
Kd [5]: 4 ± 0.18 µM
Kobs ([5]; ITC): 2.51±0.11 ×10^5 M^−1
TΔS ([5]; ITC): -2.19 kcal/mol
n (binding stoichiometry) ([5]; ITC): 1.01±0.22
ΔG ([5]; ITC): -5.47 kcal/mol
ΔH ([5]; ITC): -7.66 ± 1.98 kcal/mol
Kobs (hCPR (human CPR)): 6.15±1.69 ×10^5 M^−1
TΔS (hCPR (human CPR)): -3.21 kcal/mol
n (binding stoichiometry) (hCPR (human CPR)): 1.02±0.06
ΔG (hCPR (human CPR)): -7.86 kcal/mol
ΔH (hCPR (human CPR)): -11.07 ± 0.88 kcal/mol
IC50 (AgCPR [6]; [16]): 468 µM
IC50 (hCPR [7]; [15]): 1090 µM
IC50 (hCPR [7]; [16]): 468 ± 41 µM

Cc1cc2nc3c(=O)[nH]c(=O)nc-3n(C[C@H](O)[C@H](O)[C@H](O)COP(=O)(O)O)c2cc1C [FMN, flavin mononucleotide]
Kd [9]: 0.023 ± 0.0009 µM
Kobs [9]: 438±17.5 ×10^5 M^−1
n (binding stoichiometry) [9]: 1.00±0.01
ΔG [9]: -10.28 kcal/mol
ΔH [9]: -19.46 ± 0.35 kcal/mol
FMN binding to A. gambiae FMN domain weaker than human domain (fold) [10]: ~4 fold
Kd [10, 17]: 0.083 ± 0.002 µM
Kobs [10, 17]: 120±3.19 ×10^5 M^−1
TΔS [10, 17]: -3.58 kcal/mol
n (binding stoichiometry) [10, 17]: 0.98±0.01
ΔG [10, 17]: -9.60 kcal/mol
ΔH [10, 17]: -13.18 ± 0.19 kcal/mol

c1ccc([I+]c2ccccc2)cc1 [diphenyliodonium chloride]
IC50 (AgCPR [6]): 28 ± 2 µM
AgCPR more sensitive to inhibition than hCPR (fold) (AgCPR [6]; cytochrome c reduction, phosphate buffer): ~10 fold

NADP^+
Kobs (hCPR (human CPR)): 145±24.5 ×10^5 M^−1
TΔS (hCPR (human CPR)): -8.91 kcal/mol
n (binding stoichiometry) (hCPR (human CPR)): 1.01±0.12
ΔG (hCPR (human CPR)): -10.55 kcal/mol
ΔH (hCPR (human CPR)): -19.46 kcal/mol and -19.46 ± 2.92 kcal/mol

cytochrome c: horse heart cytochrome c, surrogate electron acceptor for measuring diflavin reductase activity
Km (AgCPR [11]): 23 µM
Km (hCPR [12]): 19 µM

horse heart cytochrome c (from UniProt P00004 1-105) (natural protein)
Km^cytc of NADPH-dependent cytochrome c reduction (steady state, 0-110 µM cytochrome c, phosphate buffer, 25°C) [13]: 19 µM
Km^cytc of NADPH-dependent cytochrome c reduction (steady state, 0-110 µM cytochrome c, phosphate buffer, 25°C) [14]: 23 µM
